The values that follow come from patent US10576151B2, “Ciclopirox for use in modulation of glucose homeostasis” (UNIVERSITY OF SOUTH CAROLINA, priority 2015, dated 2020).

The subject of experiment [1] is diabetic mice. Particulars: cited from earlier work.
In experiment [2] the test system is BiP, GRP94 and CHOP. The experiment can be described thus: Western blot of ER stress markers in islets in culture. Particulars: islets exposed to increasing amounts of iron citrate alone (FIG. 12A). In kind it is cell-based, mouse. The protocol: (§1) Western Blotting. The mouse islets were treated with CPX 20 μM for 24 h and lysed in RIPA buffer [50 mM Tris, pH 7.2; 150 mM NaCl; 1% sodium deoxycholate; 0.1% SDS; 1% Triton-X 100; 10 mM NaF; 1 mM Na3VO4; protease inhibitor cocktail (1:1000, Sigma, St. Louis, Mo.)] and were subjected to immunoblot analysis by standard methods. Proteins were resolved on a 10% SDS-PAGE and transferred to a nitrocellulose membrane (Bio-Rad, Hercules, Calif.). Membranes were probed overnight with GADD153 (F-168), sc-575 from Santa Cruz Biotechnology (1:50); p21 (F-5), sc-6246 from Santa Cruz Biotechnology (1:200); actin, clone C4 MAB1501 from Millipore (Billerica, Mass., USA) (1:2000); BiP antibody (cat. no. 3183) from Cell Signaling (Danvers, Mass., USA) (1:1000); GRP94 antibody (H-212), sc-11402 from Santa Cruz Biotechnology (1:500); insulin rabbit polyclonal H-86, sc-9168 from Santa Cruz Biotechnology (1:500) antibodies followed by incubation with horseradish peroxidase-conjugated (HRP) anti-mouse (1:10000), goat anti-rabbit IgG (1:10000, Santa Cruz biotechnology Inc., Santa Cruz, Calif., USA) for 1 hr. After incubation with enhanced chemiluminescence reagents (Santa Cruz biotechnology Inc.), membranes were analyzed using an Image J software for Windows.
(§2) In order to understand better how CPX operates in β cells, it was tested to determine if it affected the efficiency by which insulin is produced following glucose stimulation. […] In view of the antidiabetic activity of CPX in vivo, the inhibition of insulin release appears contradictory. […]
(§3) While modulation of insulin release by CPX constitutes a challenging mechanism by which CPX may affect ER stress, how CPX regulates insulin expression remains obscure. […] To test this hypothesis, islets were exposed to iron citrate, alone or combined with CPX, and the levels were recorded of chaperones BiP, GRP94 and CHOP, as well as of insulin.
On the technique in general: Immunoblotting shows a protein as a band on a membrane.

Experiment [3] relates to insulin. Put plainly: Western blot of insulin levels in islets in culture. Particulars: islets exposed to increasing amounts of iron citrate alone (FIG. 12A). The experiment is classed as cell-based, mouse. The procedure: as §1, §2, §3

For the molecule `COc1ccc(C2=N[C@@H](c3ccc(Cl)cc3)[C@@H](c3ccc(Cl)cc3)N2C(=O)N2CCNC(=O)C2)c(OC(C)C)c1` [nutlin-3a], in experiment [1] (mice, stimulation of p53/p21 activity), the effect on diabetes entry is “beneficial for diabetes in mice”. In experiment [1] (p21-deficient diabetic mice), the “response of diabetes to treatment” value is “unresponsive to nutlin-3a”.

Take iron citrate: the “ER stress-markers BiP, GRP94 and CHOP” value in experiment [2] was “induced ER stress-markers BiP, GRP94 and CHOP”. The insulin production entry in experiment [3] is “triggered insulin production”.
